Assay results from patent US20240165264A1, “T CELL ACTIVATION” (The University of Birmingham, priority 2022, published 2024).

Key:
[1] = test system: CD4+ T cells from the Nr4a3-FT mouse; assay: Flow cytometry analysis of T cell activation markers after magnetic force application to MNP-bound cells; assay type: cell-based; details: blockade of actin cytoskeletal dynamics
Experimental: (§1) Splenic tissue was sourced from Nr4a3—fluorescent timer (Nr4a3-FT) reporter mice or from Tg4 transgenic mice, kindly provided by the laboratories of Dr David Bending (University of Birmingham) or Professor David Wraith (University of Birmingham) respectively. CD4+ T cells were purified by negative selection as per the manufacturer's instructions (Invitrogen, magnisort mouse CD4+ enrichment kit, 8804-6821-74) and CD4+ T cell purity was ≥95% in all experiments. Isolated CD4+ T cells were treated with functionalized MNPs for 30 minutes on ice, to final concentrations of 5×10^5 cells and 50 μg/ml MNPs respectively. Cells were then washed three times in PBS by 5 minutes of centrifugation at 300 g, before resuspension at 1×10^6/ml and use in force application experiments.
(§2) Cells treated with MNPs were subjected to external magnetic force through use of the Magnetic Ion Channel Activation (MICA) platform for force application as previously described (Henstock et al., 2018; Hughes et al., 2008). […] In all experiments shown, oscillations were set at 1 Hz and the plate was positioned 3 mm away from the particles in the on position. Force was applied for time frames shown, before assessment of biological T cell activity as described herein.
Following force application for time frames indicated, cells were maintained in a 37° C. […]

Nr4a3-FT CD4+ T cells = assay: Force induced TCR downregulation (TCRlo) by flow cytometry; assay type: cell-based, mouse; details: Latrunculin A 0.25 and 1 μM; cells with 250 nm particles and force
Experimental: as §1, §2
Where indicated, cells were treated with Latrunculin A (Tocris, C973) to final concentrations of 0.25 and 1 μM. […]

SMILES: C/C1=C/C(=O)O[C@@H]2C[C@@H](CC[C@H](C)/C=C\C=C\CC1)O[C@@](O)([C@@H]1CSC(=O)N1)C2 [Latrunculin A]
- effect on force induced T cell activation [1]: prevents TCR downregulation and T cell activation
- effect on force induced TCR downregulation (Nr4a3-FT CD4+ T cells): prevents force induced TCR downregulation
- effect on population of cells that are TCRlo and Nr4a3 positive (Nr4a3-FT CD4+ T cells): prevents the establishment of a population of cells that are TCRlo and Nr4a3 positive
